One may read the IC50 as the concentration that inhibits the measured activity by half.

Chain of recombinant human integrin αVβ6 (P06756 31-992): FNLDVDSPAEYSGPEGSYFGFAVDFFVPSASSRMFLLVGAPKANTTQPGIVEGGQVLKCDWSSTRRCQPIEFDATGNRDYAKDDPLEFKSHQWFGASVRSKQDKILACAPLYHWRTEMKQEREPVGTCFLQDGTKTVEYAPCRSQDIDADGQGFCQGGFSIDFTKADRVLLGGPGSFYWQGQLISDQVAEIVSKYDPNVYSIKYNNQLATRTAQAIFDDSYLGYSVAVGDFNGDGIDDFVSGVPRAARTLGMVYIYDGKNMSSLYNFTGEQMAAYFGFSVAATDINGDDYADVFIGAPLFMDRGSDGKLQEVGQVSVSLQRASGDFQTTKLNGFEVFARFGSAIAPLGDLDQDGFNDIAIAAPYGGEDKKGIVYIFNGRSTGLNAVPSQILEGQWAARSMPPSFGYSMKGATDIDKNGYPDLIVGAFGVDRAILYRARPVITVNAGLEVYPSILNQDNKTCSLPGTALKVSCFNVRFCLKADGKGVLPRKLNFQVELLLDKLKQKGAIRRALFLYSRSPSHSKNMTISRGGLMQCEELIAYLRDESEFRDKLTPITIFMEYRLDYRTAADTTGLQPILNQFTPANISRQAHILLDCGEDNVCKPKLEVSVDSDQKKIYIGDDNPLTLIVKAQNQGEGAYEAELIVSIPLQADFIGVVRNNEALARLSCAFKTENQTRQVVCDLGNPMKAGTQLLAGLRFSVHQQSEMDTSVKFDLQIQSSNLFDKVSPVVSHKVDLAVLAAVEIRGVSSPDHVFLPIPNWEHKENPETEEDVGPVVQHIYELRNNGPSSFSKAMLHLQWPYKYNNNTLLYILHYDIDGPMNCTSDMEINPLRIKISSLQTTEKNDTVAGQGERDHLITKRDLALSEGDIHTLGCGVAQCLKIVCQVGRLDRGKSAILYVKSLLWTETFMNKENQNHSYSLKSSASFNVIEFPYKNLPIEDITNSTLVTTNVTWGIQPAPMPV
Chain of recombinant human integrin αVβ6 (P18564 22-707): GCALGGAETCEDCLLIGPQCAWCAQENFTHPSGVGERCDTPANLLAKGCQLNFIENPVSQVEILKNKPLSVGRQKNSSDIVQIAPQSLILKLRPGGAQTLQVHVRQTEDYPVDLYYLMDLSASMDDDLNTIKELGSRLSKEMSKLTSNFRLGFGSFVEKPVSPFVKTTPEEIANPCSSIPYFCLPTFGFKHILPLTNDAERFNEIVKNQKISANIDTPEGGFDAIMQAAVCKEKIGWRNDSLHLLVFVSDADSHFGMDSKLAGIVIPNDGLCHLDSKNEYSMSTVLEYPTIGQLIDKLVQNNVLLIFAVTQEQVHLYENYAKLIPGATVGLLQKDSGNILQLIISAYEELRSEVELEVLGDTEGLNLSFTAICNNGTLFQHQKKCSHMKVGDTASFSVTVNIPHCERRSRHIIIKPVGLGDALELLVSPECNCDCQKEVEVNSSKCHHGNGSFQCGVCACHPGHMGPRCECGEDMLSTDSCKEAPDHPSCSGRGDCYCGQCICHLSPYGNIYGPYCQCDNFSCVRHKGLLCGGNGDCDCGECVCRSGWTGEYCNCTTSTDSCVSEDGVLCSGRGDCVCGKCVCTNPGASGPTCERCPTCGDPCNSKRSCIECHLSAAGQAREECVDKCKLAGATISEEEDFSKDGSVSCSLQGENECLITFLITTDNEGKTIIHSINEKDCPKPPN

The experiment concerns the target recombinant human integrin αVβ6 (Homo sapiens (Human), UniProt P06756+P18564). Put plainly: Solid phase integrin αVβ6 binding assay. To be noted: inhibition of recombinant TGFβ1 LAP binding to coated integrin, IC50 presented in four ranges, read-out: αvβ6 Inhibition IC50 (nM) - range. The procedure: (§1) Microplates were coated with recombinant human integrin αVβ6 (2 μg/mL) in PBS (100 μL/well 25° C., overnight). The coating solution was removed, washed with wash buffer (0.05% Tween 20; 0.5 mM MnCl2; in 1×TBS). The plate was blocked with 200 μL/well of Block Buffer (1% BSA; 5% sucrose; 0.5 mM MnCl2; in 1×TBS) at 37° C. for 2 h. Dilutions of testing compounds and recombinant TGFβ1 LAP (0.67 μg/mL) in binding buffer (0.05% BSA; 2.5% sucrose; 0.5 mM MnCl2; in 1×TBS) were added. The plate was incubated for 2 hours at 25° C., washed, and incubated for 1 hour with Biotin-Anti-hLAP. Bound antibody was detected by peroxidase-conjugated streptavidin. The IC50 values for testing compounds were calculated by a four-parameter logistic regression.
The compounds tested were compound samples prepared according to procedures described in the Synthetic Examples section, with the stereochemical purity as indicated in the Examples.
as §1, with “A third series of exemplary compounds was selected for testing in the solid phase integrin αVβ6 binding assay. The compounds tested were compound samples prepared according to procedures described in the Synthetic Examples section, with the stereochemical purity as indicated in the Examples. As in Example B1, microplates were” for “Microplates were”, “(0.67 g/mL)” for “(0.67 μg/mL)”
Turning to `COCCN(CCCCc1ccc2c(n1)NCCC2)CC[C@H](Nc1ncnc2c(Cl)cccc12)C(=O)O` [Compound 38, (S)-2-((8-chloroquinazolin-4-yl)amino)-4-((2-methoxyethyl) (4-(5,6,7,8-tetrahydro-1,8-naphthyridin-2-yl)butyl)amino) butanoic Acid], the IC50 is below 50 nM.

On to `O=C(O)[C@H](CCN(CCCCc1ccc2c(n1)NCCC2)CCOCC(F)(F)F)Nc1ncnc2ccccc12` [Compound 39, (S)-2-(quinazolin-4-ylamino)-4-((4-(5,6,7,8-tetrahydro-1,8-naphthyridin-2-yl)butyl) (2-(2,2,2-trifluoroethoxy)ethyl)amino) butanoic Acid], for which the IC50 was below 50 nM.

Turning to `Cc1nc(N[C@@H](CCN(CCCCc2ccc3c(n2)NCCC3)CCOc2ccc(F)cc2)C(=O)O)c2ccc(F)cc2n1` [Compound 40, (S)-2-((7-fluoro-2-methylquinazolin-4-yl)amino)-4-((2-(4-fluorophenoxy)ethyl) (4-(5,6,7,8-tetrahydro-1,8-naphthyridin-2-yl)butyl)amino) butanoic Acid], the IC50 was below 50 nM.

In the case of `COc1ccc2c(N[C@@H](CCN(CCCF)CCCCc3ccc4c(n3)NCCC4)C(=O)O)ncnc2c1` [Compound 41, (S)-4-((3-fluoropropyl) (4-(5,6,7,8-tetrahydro-1,8-naphthyridin-2-yl)butyl)amino)-2-((7-methoxyquinazolin-4-yl)amino) butanoic Acid], the IC50 was below 50 nM.

Take `Cc1nc(N[C@@H](CCN(CCCCc2ccc3c(n2)NCCC3)CCOC2CC2(F)F)C(=O)O)c2ccc(F)cc2n1` (stereo partly drawn) [Compound 42, (2S)-4-((2-(2,2-difluorocyclopropoxy)ethyl) (4-(5,6,7,8-tetrahydro-1,8-naphthyridin-2-yl)butyl)amino)-2-((7-fluoro-2-methylquinazolin-4-yl)amino) butanoic Acid]: the IC50 is below 50 nM.

On to `COc1cccc2c(N[C@@H](CCN(CCCF)CCCCc3ccc4c(n3)NCCC4)C(=O)O)ncnc12` [Compound 43, (S)-4-((3-fluoropropyl) (4-(5,6,7,8-tetrahydro-1,8-naphthyridin-2-yl)butyl)amino)-2-((8-methoxyquinazolin-4-yl)amino) butanoic Acid], for which the IC50 was below 50 nM.

Regarding `COCCN(CCCCc1ccc2c(n1)NCCC2)CC[C@H](Nc1cc(-n2cccn2)ncn1)C(=O)O` [Compound 44, (S)-2-((6-(1H-pyrazol-1-yl)pyrimidin-4-yl)amino)-4-((2-methoxyethyl) (4-(5,6,7,8-tetrahydro-1,8-naphthyridin-2-yl)butyl)amino) butanoic Acid], the IC50 is below 50 nM.

As to `Cc1cc(C)n(CCN(CCCCc2ccc3c(n2)NCCC3)CC[C@H](Nc2ncnc3ccccc23)C(=O)O)n1` [Compound 45, (S)-4-((2-(3,5-dimethyl-1H-pyrazol-1-yl)ethyl) (4-(5,6,7,8-tetrahydro-1,8-naphthyridin-2-yl)butyl)amino)-2-(quinazolin-4-ylamino) butanoic Acid], the IC50 was below 50 nM.

Regarding `COC[C@@H](F)CN(CCCCc1ccc2c(n1)NCCC2)CC[C@H](Nc1nc(C)nc2ccccc12)C(=O)O` [Compound 46, (S)-4-(((S)-2-fluoro-3-methoxypropyl) (4-(5,6,7,8-tetrahydro-1,8-naphthyridin-2-yl)butyl)amino)-2-((2-methylquinazolin-4-yl)amino) butanoic Acid], the IC50 was below 50 nM.

Consider `O=C(O)[C@H](CCN(CCCCc1ccc2c(n1)NCCC2)CCOc1cc(F)cc(F)c1)Nc1ncnc2ccccc12` [Compound 47, (S)-4-((2-(3,5-difluorophenoxy)ethyl) (4-(5,6,7,8-tetrahydro-1,8-naphthyridin-2-yl)butyl)amino)-2-(quinazolin-4-ylamino) butanoic Acid], for which the IC50 was below 50 nM.

As for `O=C(O)[C@H](CCN(CCCCc1ccc2c(n1)NCCC2)CCOc1ccccn1)Nc1ncnc2c(Cl)cccc12` [Compound 48, (S)-2-((8-chloroquinazolin-4-yl)amino)-4-((2-(pyridin-2-yloxy)ethyl) (4-(5,6,7,8-tetrahydro-1,8-naphthyridin-2-yl)butyl)amino) butanoic Acid], the half-inhibitory concentration (IC50) is below 50 nM.

Values taken from patent publication US10793564B2, “Amino acid compounds and methods of use” (Pliant Therapeutics, Inc., priority 2018, dated 2020).
